From patent US20240277715A1, “COMBINATION THERAPIES COMPRISING A METTL3 INHIBITOR AND A FURTHER ANTICANCER AGENT” (Storm Therapeutics Limited, priority 2021, published 2024)

Legend:
[1] = tested on: A20 mouse B cell lymphoma; assay: Subcutaneous A20 lymphoma syngeneic model, anti-tumour efficacy; type: in vivo
Description: The in vivo effect of METTL3 inhibition in combination with anti-PD1 immune checkpoint inhibitor was investigated using syngeneic mouse tumour models in immune-competent hosts. Mouse tumour models can be grown in appropriate host strains and are widely used to investigate the effects of therapeutic agents on the immune system and cancer growth. There are a limited range of mouse syngeneic tumour models available, far fewer than human cell lines, and they are widely used in the art to support potential clinical utility of immune stimulatory approaches across multiple indications. We exemplify the potential role of STM3480 and combinations with immune checkpoint inhibitors such as anti-PD-1 antibodies in multiple tumour models including A20 (murine B cell lymphoma), EMT-6 (murine breast cancer) and CT-26 (murine colorectal cancer).
The objective of this study is to assess the anti-tumour efficacy of STM3480 in combination with anti-PD1 in subcutaneous A20 mouse B cell lymphoma cancer model in female BALB/c mice.
A20 (#ATCC TIB-208) mouse B cell lymphoma cells were cultured in (RPMI-1640+10% non H.I. FBS+0.05 mM 2-mercaptoethanol) media. 5×10^5 viable cells in 0.1 ml PBS were injected subcutaneously into the left flank of 7-9 week old female BALB/cN (BALB/cAnNCrl) Crl mice utilising 27 gauge needles following skin disinfection with 70% ethanol.
Tumours were measured three times a week and tumour volumes estimated using the formula 0.5 (L×W^2) by measuring the tumour in two dimensions using electronic callipers for the duration of the study.
Mice were randomly allocated to four treatment groups and treatment commenced when tumours reached a mean volume of ˜50-100 mm^3. Mice were allocated to their treatment groups with uniform mean tumour volume between groups. Treatment was continued for up to 3 weeks, or until individual mice were sacrificed for humane reasons according to Home Office license regulations (e.g. body weight loss >20%; tumour volume >1500 mm^3; tumour ulceration; loss of clinical condition). The final dose was given on day 32 after implantation.
Vehicle for STM3480—Hydroxypropyl-β-Cyclodextrin (HPBCD)/Sodium Acetate buffer pH:4.6 50 mM (10%/90%; w/v): Weigh 1.025 g of sodium acetate anhydrous. Add 700 μl of glacial acetic acid then make up to 500.0 ml with ultrapurified water. pH:4.6 50 mM.
For 1 ml volume 5 mg/ml STM3480 dosing solution: Weigh 5.0 mg of STM00003480 compound (Batch: EV-WZM001-421-002). Add 1.0 mL of HPBCD/Acetate buffer pH:4.6 50 mM (10%/90%; w/v). Magnetic stirring at high speed at ambient temperature; Overnight stirring may be required if there are any signs of precipitation. The formulation is a slight yellow solution with very few particles in suspension. Homogenize with a vortex before administration. […]

[2] = tested on: FLT3-mutant MOLM-14 AML cell line; assay: AML cell viability, CellTiter-Glo combination matrix, MOLM-14; type: cell-based
Protocol: 24 h before cell treatment, homogenize, stain with Trypan blue and count viable cells using CellOMeter Auto T4. Dilute cells in media at 400 000 cells/ml to ensure an exponential growth the day after.
On treatment day, homogenize, stain with Trypan blue and count viable cells using CellOMeter Auto T4. Dilute to the proper cell seeding density according to Table 6 in cell media.
• Dispense drug (see Table 7) and METTL3 inhibitor in semi-log dose-response matrix and DMSO in 384-well plates using D300e Nanodispenser (Tecan). • 6× compound solution preparation: add 40 μL of cell medium in compound-containing plates and homogenize using the ViaFlo device (Integra) • Dispense 30 μl of cell suspension per well in three replicate 384-well white Ultra-Low-Attachment plates (Sbio) using ViaFlow device (Integra) • Transfer 6 μL of the 6× compound solution in each 30 μL cell suspension-containing plate. • Incubate at 37° C. 5% CO2 for 3 to 5 days.
• Add 35 μL CellTiter-Glo (Promega) in wells (vol/vol) using ViaFlo device (Integra). • Incubate at RT 10 min in the dark, with agitation the first minute, and read luminescence on the Ensight device (Perkin Elmer).
Raw data were converted to % viability by normalization to DMSO controls.

Q: For `O=C(NCc1ccc2cc(CNCC3CCC3)[nH]c2c1)c1cc(=O)n2ccccc2n1` [STM3480, N-[(2-{[(cyclobutylmethyl)amino]methyl}-1H-indol-6-yl)methyl]-4-oxo-4H-pyrido[1,2-a]pyrimidine-2-carboxamide], which “tumour growth compared to the vehicle control (mean tumour volume)” value ([1]; A20, FIG. 3) is on record?
A: reduction of tumour growth

Q: What about the “Mean tumour volume d24” value ([1]; A20, female BALB/c mice, STM3480 50 mg/kg p.o., anti PD1 10 mg/kg i.p. BIW, up to 3 weeks, 10 per group) of the same compound?
A: 425 mm3

Q: And the “progressive tumour growth, animals” value ([1]; A20, individual tumours (FIG. 4))?
A: 8/10

Q: What about the “No. mice with complete regressions” value ([1]; A20, STM3480 50 mg/kg p.o., anti PD1 10 mg/kg i.p. BIW, 10 per group) of the same compound?
A: 1

Q: And the interaction with quizartinib ([2]; FLT3-mutant MOLM-14 AML cell line)?
A: additive

Q: And the “cell viability with increasing concentrations of METTL3 inhibitor” value ([2]; MOLM-14, combination with quizartinib)?
A: decreasing viability
